Test results as given in patent publication US20170266091A1, “Mouthwash Composition Comprising a Peroxide Source and an N-Acyl-L-Arginine Alkyl Ester Salt” (Colgate-Palmolive Company, priority 2014, published 2017).

Test system: mixed-species bacterial culture (Actinomyces viscosus, Lactobacillus casei, Fusobacterium nucleatum subsp. polymorphum, Streptococcus oralis and Veillonella …)
Test: Short interval kill (SIK) test
Type: cell-based
Details: thirty seconds treatment, Live/Dead staining
Method: The anti-microbial efficacy of mouthwash formulations according to the present invention was tested using short interval kill (SIK) test. The formulations tested were the same as those used in Example 2. 500 μl of a mixed-species bacterial culture (Actinomyces viscosus (ATCC#43146), Lactobacillus casei (ATCC#334), Fusobacterium nucleatum subsp. polymorphum (ATCC#10953), Streptococcus oralis (ATCC#35037) and Veillonella parvula (ATCC#17745)) were transferred to sterile 2 ml microcentrifuge tubes. The samples were centrifuged for 10 min at ˜21 000×g to pellet bacterial cells. […] The re-suspended samples were subsequently treated with 100 μl of mouthwash or control solution. Bacterial killing was stopped after thirty seconds by adding 1.3 ml of D/E Neutralization Buffer. Samples were centrifuged for 10 min at 10,000 rpm to pellet bacterial cells. […] Finally, the pelleted cells were suspended in 150 μl of sterile PBS and aliquots were transferred to each of three wells of a sterile 96-well plate. To quantify the viable bacteria left after treatment, the bacterial suspensions were stained using Invitrogen BacLight Live/Dead viability kit. This kit consists of two fluorescent dyes, propidium iodine and SYTO9. The first dye, propidium iodide, is a red fluorescent DNA stain that can only penetrate bacterial cells whose membranes have been permeabilized (i.e. those cells that are “dead”). The second dye, SYTO9, is a green fluorescent DNA dye that is able to stain all bacterial cells. The bacterial suspensions were stained by adding 50 μl of a solution containing the two dyes in equal amounts to each well of the 96-well plate. Plates were then incubated for 15 min at room temperature, protected from light. The fluorescence of the samples were measured at an excitation wavelength of 485 nm and emission wavelengths of 535 nm and 635 nm. The results are illustrated in Table 8, and are provided as the percentage of cells that are viable relative to a control treatment with PBS alone.

In the case of `CCO` [Ethanol 100%, Ethanol], the “percentage of cells that are viable relative to PBS control, Run 1” value (Run 1) is reported as 44%, the “percentage of cells that are viable relative to PBS control, Run 2” value (Run 2) is reported as 47% and the “percentage of cells that are viable relative to PBS control, Run 3” value (Run 3) is reported as 48%. For the same compound, the “percentage of cells that are viable relative to PBS control, Average” value (average of 3 runs) was 46%.
